# Source: ChEMBL document CHEMBL1156449, “The nucleoside analog sangivamycin induces apoptotic cell death in breast carcinoma MCF7/adriamycin-resistant cells via protein kinase Cdelta and JNK activation” (J Biol Chem, 2007)
# Active and inactive are the calls of the source. No cut-off for these calls is given here.
# Assays:
# [1] = Cell cycle arrest in human multidrug resistant MCF/ADR cells assessed as accumulation at G0/G1 phase at 0.3 uM after 72 hrs by propidium fluorescence flow cytometry; assay type: functional, cell-based
# [2] = Cell cycle arrest in human drug-sensitive MCF/WT cells assessed as accumulation at sub G0/G1 phase at 0.3 uM after 24 hrs by propidium fluorescence flow cytometry; assay type: functional, cell-based
# [3] = Effect on cell morphology in human multidrug resistant MCF/ADR cells assessed as floating cells with intact plasma membrane at 0.3 uM after 72 hrs by trypan blue dye exclusion test; assay type: functional
# [4] = test system: MCF/ADR; experiment: Cytocidal effect in human multidrug resistant MCF/ADR cells assessed as decrease in number of viable cells at 0.1 uM after 1 hr measured after 72 hrs in absence of drug by MTT colorimetric assay; assay type: functional, cell-based
# [5] = Reduction in induction of c-Jun expression in human multidrug resistant MCF/ADR cells at 0.3 uM after 48 hrs by immunoblot analysis in presence of rottlerin; assay type: functional, cell-based
# [6] = Cell cycle arrest in human drug-sensitive MCF/WT cells assessed as accumulation at G0/G1 phase at 0.3 uM after 24 hrs by propidium fluorescence flow cytometry; assay type: functional, cell-based
# [7] = Cell cycle arrest in human multidrug resistant MCF/ADR cells assessed as accumulation at G2/M phase at 0.3 uM after 24 hrs by propidium fluorescence flow cytometry; assay type: functional, cell-based
# [8] = test system: MCF/WT; experiment: Increase in p21CIP accumulation in human drug-sensitive MCF/WT cells at 0.3 uM after 48 hrs by immunoblot analysis; assay type: functional, cell-based
# [9] = Cell cycle arrest in human drug-sensitive MCF/WT cells assessed as accumulation at G2/M phase at 0.3 uM after 24 hrs by propidium fluorescence flow cytometry; assay type: functional, cell-based
# [10] = target: Bcl-2-like protein 1 (Homo sapiens) (UniProt Q07817); experiment: Inhibition of induction of Bcl-x/s phosphorylation in human multidrug resistant MCF/ADR cells at 0.3 uM after 48 hrs in presence of rottlerin; assay type: functional, cell-based
# [11] = test system: MCF/ADR; experiment: Increase in Bcl-2 levels in human multidrug resistant MCF/ADR cells at 0.3 uM by immunoblot analysis; assay type: functional, cell-based
# [12] = test system: MCF/ADR; experiment: Decrease in p53 accumulation in human multidrug resistant MCF/ADR cells at 0.3 uM after 72 hrs by immunoblot analysis; assay type: functional, cell-based
# [13] = test system: MCF/WT; experiment: Cytostatic effect in human drug sensitive MCF/WT cells assessed as slight increase in number of viable cells at 0.1 uM after 1 hr measured after 72 hrs in absence of drug by MTT colorimetric assay; assay type: functional, cell-based
# [14] = Inhibition of nuclear protein kinase 2
# [15] = test system: MCF/WT; experiment: Induction of JNK p46 isoform phosphorylation in human drug-sensitive MCF/WT cells at 0.3 uM after 48 hrs by immunoblot analysis; assay type: cell-based
# [16] = Cell cycle arrest in human multidrug resistant MCF/ADR cells assessed as accumulation at S phase at 0.3 uM after 48 hrs by propidium fluorescence flow cytometry; assay type: functional, cell-based
# [17] = Cell cycle arrest in human drug-sensitive MCF/WT cells assessed as accumulation at G2/M phase at 0.3 uM after 48 hrs by propidium fluorescence flow cytometry; assay type: functional, cell-based
# [18] = test system: MCF/ADR; experiment: Blockade of apoptosis induction in human multidrug resistant MCF/ADR cells at 0.3 uM after 48 hrs in presence of rottlerin; assay type: functional, cell-based
# [19] = Cell cycle arrest in human multidrug resistant MCF/ADR cells assessed as accumulation at sub G0/G1 phase at 0.3 uM after 24 hrs by propidium fluorescence flow cytometry; assay type: functional, cell-based
# [20] = test system: MCF/ADR; experiment: Inhibition of induction of apoptosis in human multidrug resistant MCF/ADR cells assessed as inhibition of cleavage of lamin A at 0.3 uM after 48 hrs by immunoblot analysis in presence of pan-specific inhibitor; assay type: functional, cell-based
# [21] = target: Transcription factor Jun (Homo sapiens) (UniProt P05412); experiment: Reduction in induction of c-Jun phosphorylation in human multidrug resistant MCF/ADR cells transfected with c-Jun siRNA at 0.3 uM after 48 hrs by immunoblot analysis; assay type: cell-based
# [22] = target: T1, c-Jun N-terminal kinase, JNK (Homo sapiens) (UniProt P45983+P53779+P45984); experiment: Induction of JNK phosphorylation in human multidrug resistant MCF/ADR cells transfected with PKCdelta siRNA at 0.3 uM after 48 hrs by immunocytochemical analysis; assay type: cell-based
# [23] = test system: MCF/ADR; experiment: Increase in Bcl-x/s levels in human multidrug resistant MCF/ADR cells at 0.3 uM by immunoblot analysis; assay type: functional, cell-based
# [24] = test system: MCF/WT; experiment: Induction of apoptosis in human drug-sensitive MCF/WT cells assessed as activation of caspase 7 at 0.3 uM by immunoblot analysis; assay type: functional, cell-based
# [25] = Cell cycle arrest in human multidrug resistant MCF/ADR cells assessed as accumulation at G0/G1 phase at 0.3 uM after 24 hrs by propidium fluorescence flow cytometry; assay type: functional, cell-based
# [26] = target: T2, Rhodopsin kinase GRK1 (Homo sapiens, UniProt Q15835); experiment: Inhibition of rhodopsin kinase
# T2 sequence (Q15835 whole entry): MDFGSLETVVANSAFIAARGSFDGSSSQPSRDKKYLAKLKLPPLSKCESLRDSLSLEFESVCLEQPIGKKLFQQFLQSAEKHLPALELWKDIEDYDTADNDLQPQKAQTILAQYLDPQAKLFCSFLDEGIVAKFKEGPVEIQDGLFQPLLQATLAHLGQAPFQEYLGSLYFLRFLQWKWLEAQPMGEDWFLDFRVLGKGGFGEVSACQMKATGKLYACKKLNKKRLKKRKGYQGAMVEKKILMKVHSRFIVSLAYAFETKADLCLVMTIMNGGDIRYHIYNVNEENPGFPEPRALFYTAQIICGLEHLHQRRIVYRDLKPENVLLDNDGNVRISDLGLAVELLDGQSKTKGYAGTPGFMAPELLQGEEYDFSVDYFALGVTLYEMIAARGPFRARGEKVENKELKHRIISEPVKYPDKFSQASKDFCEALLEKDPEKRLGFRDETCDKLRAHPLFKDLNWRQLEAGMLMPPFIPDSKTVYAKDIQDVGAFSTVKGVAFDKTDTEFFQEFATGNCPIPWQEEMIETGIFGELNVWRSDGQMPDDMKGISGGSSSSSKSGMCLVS
# [27] = test system: MCF/ADR; experiment: Induction of apoptosis in human multidrug resistant MCF/ADR cells assessed as activation of caspase 6 at 0.3 uM by immunoblot analysis; assay type: functional, cell-based
# [28] = test system: MCF/ADR; experiment: Reduction in induction of apoptosis in human multidrug resistant MCF/ADR cells assessed as suppression of PARP cleavage at 0.3 uM after 48 hrs by immunoblot analysis in presence of rottlerin; assay type: functional, cell-based
# [29] = target: T1, c-Jun N-terminal kinase, JNK (Homo sapiens); experiment: Effect on mitochondrial localization of phosphorylated JNK with Bcl-x/l in human multidrug resistant MCF/ADR cells assessed as enhanced JNK activity by Mitotracker red staining; assay type: cell-based
# [30] = target: Transcription factor Jun (Homo sapiens) (UniProt P05412); experiment: Induction of c-Jun serine 73 phosphorylation in human multidrug resistant MCF/ADR cells at 0.3 uM; assay type: cell-based
# [31] = test system: MCF/WT; experiment: Increase in Bcl-x/l levels in human drug-sensitive MCF/WT cells at 0.3 uM by immunoblot analysis; assay type: functional, cell-based
# [32] = test system: MCF/ADR; experiment: Reduction of lamin A cleavage in human multidrug resistant MCF/ADR cells transfected with c-Jun siRNA at 0.3 uM after 48 hrs by immunoblot analysis; assay type: functional, cell-based
# [33] = Inhibition of PKA
# Chain of Transcription factor Jun (Homo sapiens) (P05412 whole entry): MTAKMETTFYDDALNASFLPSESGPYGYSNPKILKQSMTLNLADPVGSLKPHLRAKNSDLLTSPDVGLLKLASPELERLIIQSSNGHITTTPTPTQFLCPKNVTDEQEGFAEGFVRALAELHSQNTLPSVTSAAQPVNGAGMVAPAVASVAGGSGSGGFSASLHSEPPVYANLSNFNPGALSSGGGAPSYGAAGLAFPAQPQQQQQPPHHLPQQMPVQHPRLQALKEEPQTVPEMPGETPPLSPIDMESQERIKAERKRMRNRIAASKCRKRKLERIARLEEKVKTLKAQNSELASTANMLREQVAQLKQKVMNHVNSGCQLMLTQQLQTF
# Chain of Bcl-2-like protein 1 (Homo sapiens) (Q07817 whole entry): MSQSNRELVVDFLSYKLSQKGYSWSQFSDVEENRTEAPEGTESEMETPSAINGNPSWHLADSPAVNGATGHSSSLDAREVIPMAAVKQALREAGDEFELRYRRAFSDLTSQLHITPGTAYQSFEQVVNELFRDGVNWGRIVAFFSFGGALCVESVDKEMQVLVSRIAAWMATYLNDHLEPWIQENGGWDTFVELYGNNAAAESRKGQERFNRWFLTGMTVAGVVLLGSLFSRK
smiles,measurement,setting,value
NC(=O)c1cn([C@@H]2O[C@H](CO)[C@@H](O)[C@H]2O)c2ncnc(N)c12 [SANGIVAMYCIN],Activity,[1],17%
same,Activity,[2],1%
same,Activity,[3],95%
same,Activity,[4],Active
same,Activity,[5],Active
same,Activity,[6],48%
same,Activity,[7],33%
same,Activity,[8],Active
same,Activity,[9],28%
same,Activity,[10],Active
same,Activity,[11],inactive
same,Activity,[12],Active
same,Activity,[13],Active
same,Ki,[14],100 µM
same,Activity,[15],inactive
same,Activity,[16],23%
same,Activity,[17],27%
same,Activity,[18],Active
same,Activity,[19],9%
same,Activity,[20],Active
same,Activity,[21],Active
same,Activity,[22],inactive
same,Activity,[23],Active
same,Activity,[24],inactive
same,Activity,[25],33%
same,Ki,[26],0.18 µM
same,Activity,[27],Active
same,Activity,[28],Active
same,Activity,[29],Active
same,Activity,[30],Active
same,Activity,[31],Active
same,Activity,[32],inactive
same,IC50,[33],50 µM
